Here are results for 6 molecules from patent US5468774A, “Tetronic, thiotetronic and tetramic acid derivatives as phospholipase A.sub ” (American Home Products Corporation, priority 1995, dated 1995).

One assay addresses 5-lipoxygenase. The assay can be described thus: Resident murine peritoneal macrophage assay, LTC4 (5-lipoxygenase). To be noted: for inhibition at 0.5 µM: Peritoneal macrophage. It counts as cell-based, murine (female Swiss Webster mice). How it is done: (§1) The ability of the compounds of the invention to act as inhibitors of the enzymes 5-lipoxygenase and cyclooxygenase is measured in the resident murine peritoneal macrophage assay.
Resident peritoneal macrophages are collected from female Swiss Webster mice (49 days old, 20-25 gms, Buckshire) by lavaging with 7-8 ml Hanks Balanced Salt Solution (HBSS) without Ca^++ and Mg^++ (GIBCO). The lavage fluid from several mice is pooled and centrifuged at 4° C. for 10 minutes at 400 xg.
(§2) Residual serum and cellular debris are removed from the monolayers by washing 3x with 2 ml HBSS containing Ca^++ and Mg^++. Macrophages are preincubated for 5 minutes with 1 ml serum-free M199 containing 10 μl dimethyl sulfoxide (DMSO) vehicle or test compound prior to cell activation with zymosan ([…]) or arachidonic acid (AA) (2 μM). After 2 hours, the supernatants are removed and either assayed for LTC4 and PGE2 by radioimmunoassay (RIA) directly or stored at -20° C. In all cases, results are expressed as ng metabolite/4×10^6 cells.
(§3) Raw data (dpm) may be stored directly onto an "Autostart" tape using the HP85 in room C-096. The raw data are converted to ng metabolite/4-10^6cells using the standard curve by a "RIANAL" program (HP85) or a "NONLIN" program (HP9816). Results are then expressed as percent inhibition of zymosan induced, leukotriene or prostaglandin synthesis (control) using the equation: [formula]

The target of the next assay is T1, Human Synovial PLA2 (Homo sapiens, UniProt P14555).
T1 construct: Purified human synovial fluid; from tissue; host or cells: human synovial fluid (purified)
T1 sequence (P14555 21-144): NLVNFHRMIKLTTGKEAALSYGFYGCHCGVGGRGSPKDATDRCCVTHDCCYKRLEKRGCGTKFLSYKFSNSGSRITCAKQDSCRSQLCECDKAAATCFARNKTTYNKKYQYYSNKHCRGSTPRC
Description: In vitro isolated phospholipase A2 assay, arachidonic acid release from 3H-AA E. coli substrate, human synovial fluid PLA2. In kind it is biochemical. The conditions noted are these: read-out: % Inhibition at 10 μM HSF (human synovial fluid). How it is done: (§4) The compounds of the invention are tested in an in vitro isolated phospholipase A2 assay to determine the ability of the test compounds to inhibit the release of arachidonic acid from an arachidonic acid-containing substrate by the action of phospholipase A2 enzyme from human and non-human sources.
(§5) Into a 15 mL polypropylene tube are added the following: […]
(§6) ^3 H-AA E. coli substrate^1
(§7) Tris-HCl (0.5M) pH 7.5^3
(§8) PLA2 25 Volume yielding 12%
(§9) *pre-incubate at room temperature 30 min prior to substrate addition.
(§10) ^1 Prepared by adding 2 mL deionized and distilled water to 2 mL
(§11) ^5 Stock 10 mM prepared in dimethyl sulfoxide. Make 1:2 dilution with
(§12) ^6 Two human PLA2 enzymes are used:
b) Purified human synovial fluid.
(§13) Incubate the 100μL reaction mixture for 10 minutes at 37° C. in a shaking water bath. The reaction is terminated by the addition of 2 mL tetrahydrofuran, followed by vortexing. NH2 columns ([…]--Analytichem International) are conditioned with 0.5 mL tetrahydrofuran followed by 0.5 mL tetrahydrofuran/water (2 mL:0.1 mL, v/v).
(§14) The sample is loaded onto the columns and slowly drawn through them. The hydrolyzed arachidonic acid retained in the columns is eluted therefrom with 1 mL tetrahydrofuran/glacial acetic acid (2%). The arachidonic acid is transferred to scintillation vials and quantitated by β-counting analysis. […]

A further assay deals with cyclooxygenase. The assay can be described thus: Resident murine peritoneal macrophage assay, PGE2 (cyclooxygenase). In kind it is cell-based, murine (female Swiss Webster mice). To be noted: mouse peritoneal macrophages; for inhibition at 0.5 µM: Peritoneal macrophage. Here is the method: as §1
Resident peritoneal macrophages are collected from female Swiss Webster mice (49 days old, 20-25 gms, Buckshire) by lavaging with 7-8 ml Hanks Balanced Salt Solution (HBSS) without Ca^++ and Mg^++ (GIBCO). The lavage fluid from several mice is pooled and centrifuged at 4° C. for 10 minutes at 400 xg. The cell pellet is resuspended in Medium 199 (GIBCO) with HEPES buffer containing 100 μg/ml gentamicin. Two ml of the cell suspension (4×10^6 cells) are then plated on 35 mm culture dishes (Nunc).
A macrophage monolayer is established after a 1-1.5 hour incubation of the cells at 37° C. in an atmosphere of 95% O2 and 5% CO2. The monolayers are washed 2x with 2 ml HBDSS, containing Ca^++ and Mg^++ after which 2 ml Medium 199 supplemented with 10% freshly thawed heat-inactivated fetal bovine serum and 100 μg/ml gentamicin is added for an overnight incubation.
as §2, §3

In a further assay the target is T2, Human Platelet PLA2 (Homo sapiens, UniProt P14555).
T2 construct: Semipurified human platelet acid extract PLA2; from tissue; host or cells: human platelets (semipurified acid extract)
T2 sequence (P14555 21-144): T1 sequence (P14555 21-144)
The assay can be described thus: In vitro isolated phospholipase A2 assay, arachidonic acid release from 3H-AA E. coli substrate, human platelet PLA2. The conditions noted are these: read-out: % Inhibition at 10 μM HP (human platelet). In kind it is biochemical. Here is the method: as §4, §5, §6, §7, §8, §9, §10, §11, §12
a) Semipurified human platelet acid extract PLA2 (in 10 Mm sodium
as §13, §14

The subject of assay [1] is Platelet-Activating Factor Biosynthesis in Human Polymorphonuclear Neutrophils. The assay can be described thus: Inhibition of platelet-activating factor (PAF) biosynthesis in human polymorphonuclear neutrophils (in vitro phospholipase A2 assay). In kind it is cell-based. To be noted: Polymorphonuclear neutrophil, A23187 stimulated human PMN. How it is done:
(§15) The compounds of the invention are tested in an in vitro phospholipase A2 assay to determine the ability of the compounds to inhibit the biosynthesis of platelet-activating factor and LTB4 in purified human neutrophils.
(§16) A leukocyte enriched blood sample obtained from a healthy donor is procured by leukophoresis using a Haemonetics model 30+ blood processor (Biological Specialties, Inc., Lansdale, Pa.). The top "platelet-rich" layer is removed after a low speed spin (35 xg, 15 min, 25° C.) of the sample. The remaining cell suspension is centrifuged (400 xg, 10 min, 25° C.) to sediment the remaining cells. The supernatant is discarded and the cell pellet resuspended in 120 ml HBSS (without Ca^++ /Mg^++). The cell suspension is subjected to ficoll-hypaque sedimentation (Histopaque 1077, 400 xg, 30 min, 25° C). Contaminating erythrocytes are lysed by hypotonic shock (1 min). The cells are then washed once with 40 ml of HBSS and resuspended with HBSS (without Ca^++ /Mg^++) to a concentration of 2.5×10^7 cells/ml for further use. Greater than 95% purity is obtained, as assessed by microscopic examination.
(§17) One ml of human PMN (2.5×10^7 cells/ml) is incubated with vehicle or drugs (10 μl) for 10 minutes at 30° C. After preincubation, an equal volume of HBSS (1 ml) containing 2.4 mM CaCl2, 6 μM calcium ionophore A23187 and 50 μCi[^3 H]-acetate is then incubated at 30° C. for 15 minutes. An aliquot (100 μl) of the reaction mixture is taken out and mixed with 900 μl of 15% ethanol. LTB4 is extracted by using solid phase extraction on reverse phase C18 columns to remove excess [^3 H]-acetate and PAD. […] The quantity of LTB4 in the sample is obtained from RIA determination. […] [^3 H]-PAF is resolved from other phospholipids by TLC on RPC18 plates with a solvent system of chloroform:methanol:water (2:3:1, v/v/v) and is quantitated using a Berthold automated TLC linear analyzer.
(§18) Data presented are the mean +/- s.d. of the values relative to control A23187 stimulated cells for each experiment assayed in triplicate. Percent inhibition when used is calculated as: […]

The subject of assay [2] is LTB4 biosynthesis in human neutrophils. Description: Inhibition of LTB4 biosynthesis in purified human neutrophils (in vitro phospholipase A2 assay). To be noted: Neutrophil, A23187 stimulated human PMN. In kind it is cell-based. Here is the method:
as §15, §16, §17, §18

The mark [3] stands for this setting: 0.5 μM, mouse peritoneal macrophages.

As for `CCCCCC#CCC#CCC#CCC#CCCCC(=O)O` [ETYA, reference compound], the concentration for half-maximal inhibition (IC50) – broadly, the midpoint of a concentration-inhibition curve – at 5-lipoxygenase (reference compounds) is 440 nM.
Consider `O=C(CCC1CCCCCCCCCCC1)C1=C(O)COC1=O` [Example 1, 3-(3-Cyclododecyl-1-oxopropyl)-4-hydroxy-2(5H)-furanone], for which the inhibition (usually the change of the read-out against control, counted positive when it falls) at 10 µM was 41.9% at Human Synovial PLA2, -3.7% at Human Platelet PLA2, 84.3% in assay [1] and 95.1% in assay [2]. Besides, the inhibition at 0.5 µM with cyclooxygenase amounted to 46.7%; with 5-lipoxygenase (setting [3]), 29%.
Regarding `O=C(CCC1CCCCCCCCCCC1)C1=C(O)CSC1=O` [Example 2, 3-(3-cyclododecyl-1-oxopropyl)-4-hydroxy-2(5H)-thiophenone], the inhibition at 10 µM came out at 53% at Human Synovial PLA2, 18.2% on Human Platelet PLA2, 79.2% in assay [1] and 69.6% in assay [2]. Moreover, the inhibition at 0.5 µM was 97.1% in the assay with cyclooxygenase and 76.1% with 5-lipoxygenase (setting [3]).
Consider `CN1CC(O)=C(C(=O)CCC2CCCCCCCCCCC2)C1=O` [Example 3, 3-(3-cyclododecyl-1-oxopropyl)-1.5-dihydro-4-hydroxy-1-methyl-1H-pyrrolin-2-one], for which the inhibition at 0.5 µM in the assay on cyclooxygenase is 75.9%; with 5-lipoxygenase (setting [3]), 66.2%. Further, the results for the inhibition at 10 µM in assay [1] and in assay [2] were 64.4% and 90.4%, respectively.
For the molecule `O=C(NCCC1CCCCCCCCCCC1)C1=C(O)COC1=O` [Example 15, 4-Hydroxy-2-oxo-2,5-dihydro-furan-3-carboxylic acid-2-cyclododecyl-ethylamide], the inhibition at 0.5 µM in the assay with cyclooxygenase came out at 52%; in the assay on 5-lipoxygenase (setting [3]), 25.9%.
As for `O=C(COCC1CCCCCCCCCCC1)C1=C(O)CSC1=O` [Example 16], in the assay with cyclooxygenase (0.5 μM), the “PGE2 % Inhibition” value came out at 77.0%. In the assay with 5-lipoxygenase (setting [3]), the “LTC4 % Inhibition” value is 33.0%.
